Data reported in ChEMBL document CHEMBL4476883, “Hydroxy formamide derivatives and their use” (2017).

Tests used:
[1] = target: T1, Bone morphogenetic protein 1 (Homo sapiens, UniProt P13497); assay: Inhibition of C-terminal FLAG-6x-His epitope tagged and N-terminal human RAGE signal sequence tagged human BMP1 (23 to 721 amino acids) expressed in CHO-E1A cells pre-incubated for 10 mins before promyostatin peptide substrate addition and measured after 60 mins using 0.5 nM BMP1 by FRET based assay; assay type: cell-based
T1 sequence (P13497 whole entry): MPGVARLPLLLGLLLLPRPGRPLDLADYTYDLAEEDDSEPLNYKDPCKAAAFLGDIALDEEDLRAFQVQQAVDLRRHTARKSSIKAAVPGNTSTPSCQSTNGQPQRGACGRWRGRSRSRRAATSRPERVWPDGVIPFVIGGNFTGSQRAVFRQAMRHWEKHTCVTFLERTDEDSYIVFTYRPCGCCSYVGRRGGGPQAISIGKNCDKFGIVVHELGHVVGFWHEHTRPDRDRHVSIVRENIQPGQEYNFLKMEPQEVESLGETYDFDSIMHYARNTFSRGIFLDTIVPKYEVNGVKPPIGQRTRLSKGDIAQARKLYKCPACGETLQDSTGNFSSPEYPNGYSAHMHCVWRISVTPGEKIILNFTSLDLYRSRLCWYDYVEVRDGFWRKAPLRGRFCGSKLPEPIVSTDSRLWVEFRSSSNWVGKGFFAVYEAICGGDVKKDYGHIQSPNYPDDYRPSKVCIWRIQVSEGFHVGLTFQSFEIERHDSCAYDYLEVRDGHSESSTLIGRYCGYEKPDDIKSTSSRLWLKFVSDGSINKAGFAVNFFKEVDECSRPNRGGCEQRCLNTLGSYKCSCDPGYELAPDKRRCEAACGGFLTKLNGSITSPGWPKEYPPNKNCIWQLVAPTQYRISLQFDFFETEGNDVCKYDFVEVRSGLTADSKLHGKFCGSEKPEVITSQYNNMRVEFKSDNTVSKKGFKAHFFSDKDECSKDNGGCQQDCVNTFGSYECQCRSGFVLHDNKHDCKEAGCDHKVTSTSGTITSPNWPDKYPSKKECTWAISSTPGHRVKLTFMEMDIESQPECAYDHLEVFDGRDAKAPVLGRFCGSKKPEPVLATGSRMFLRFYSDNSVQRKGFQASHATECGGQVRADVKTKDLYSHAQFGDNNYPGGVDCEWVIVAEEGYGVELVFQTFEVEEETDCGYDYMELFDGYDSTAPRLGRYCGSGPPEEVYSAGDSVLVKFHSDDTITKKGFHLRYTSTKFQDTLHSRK

[2] = target: T1, Bone morphogenetic protein 1; assay: Inhibition of C-terminal FLAG-6x-His epitope tagged and N-terminal human RAGE signal sequence tagged human BMP1 (23 to 721 amino acids) expressed in CHO-E1A cells pre-incubated for 10 mins before promyostatin peptide substrate addition and measured after 30 mins using 50 nM BMP1 by FRET based assay; assay type: cell-based
[3] = target: Tolloid-like protein 1 (Homo sapiens, UniProt O43897, I156V/N221S/V284A); assay: Inhibition of recombinant human TLL1 I156V/N221S/V284A mutant expressed in CHOE1A cells pre-incubated for 10 mins before promyostatin peptide substrate addition and measured after 60 mins by FRET based assay; assay type: cell-based
Tolloid-like protein 1, sequence (O43897 148-1013 I156V/N221S/V284A limits assumed): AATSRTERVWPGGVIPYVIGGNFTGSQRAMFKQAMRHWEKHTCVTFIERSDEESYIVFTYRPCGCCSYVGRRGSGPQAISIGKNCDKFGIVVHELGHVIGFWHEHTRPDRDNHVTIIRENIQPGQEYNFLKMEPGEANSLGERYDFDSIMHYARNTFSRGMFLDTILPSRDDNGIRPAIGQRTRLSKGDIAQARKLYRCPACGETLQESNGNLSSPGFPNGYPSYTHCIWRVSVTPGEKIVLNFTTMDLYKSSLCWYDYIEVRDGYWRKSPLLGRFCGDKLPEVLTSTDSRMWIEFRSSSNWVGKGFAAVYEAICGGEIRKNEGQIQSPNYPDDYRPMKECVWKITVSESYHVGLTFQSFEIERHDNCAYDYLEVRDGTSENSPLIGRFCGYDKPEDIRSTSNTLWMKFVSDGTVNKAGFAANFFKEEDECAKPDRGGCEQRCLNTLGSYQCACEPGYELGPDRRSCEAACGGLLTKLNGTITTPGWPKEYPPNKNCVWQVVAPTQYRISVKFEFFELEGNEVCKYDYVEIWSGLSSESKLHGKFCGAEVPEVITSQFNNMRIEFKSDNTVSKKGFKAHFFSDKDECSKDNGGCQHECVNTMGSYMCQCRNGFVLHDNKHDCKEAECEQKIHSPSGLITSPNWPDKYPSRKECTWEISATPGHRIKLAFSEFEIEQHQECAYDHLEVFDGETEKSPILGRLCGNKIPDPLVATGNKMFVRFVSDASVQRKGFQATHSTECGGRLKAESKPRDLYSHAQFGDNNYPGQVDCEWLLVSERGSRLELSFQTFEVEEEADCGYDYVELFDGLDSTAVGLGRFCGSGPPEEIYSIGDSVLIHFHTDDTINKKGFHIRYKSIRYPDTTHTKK

[4] = target: T2, Tolloid-like protein 2 (Homo sapiens, UniProt Q9Y6L7); assay: Inhibition of C-terminal Avi-6x-His epitope tagged and N-terminal human RAGE signal sequence tagged recombinant human TLL2 (26 to 1015 amino acids) expressed in CHOE1A cells incubated for 60 mins with promyostatin peptide substrate by FRET based assay; assay type: cell-based
T2 sequence (Q9Y6L7 whole entry): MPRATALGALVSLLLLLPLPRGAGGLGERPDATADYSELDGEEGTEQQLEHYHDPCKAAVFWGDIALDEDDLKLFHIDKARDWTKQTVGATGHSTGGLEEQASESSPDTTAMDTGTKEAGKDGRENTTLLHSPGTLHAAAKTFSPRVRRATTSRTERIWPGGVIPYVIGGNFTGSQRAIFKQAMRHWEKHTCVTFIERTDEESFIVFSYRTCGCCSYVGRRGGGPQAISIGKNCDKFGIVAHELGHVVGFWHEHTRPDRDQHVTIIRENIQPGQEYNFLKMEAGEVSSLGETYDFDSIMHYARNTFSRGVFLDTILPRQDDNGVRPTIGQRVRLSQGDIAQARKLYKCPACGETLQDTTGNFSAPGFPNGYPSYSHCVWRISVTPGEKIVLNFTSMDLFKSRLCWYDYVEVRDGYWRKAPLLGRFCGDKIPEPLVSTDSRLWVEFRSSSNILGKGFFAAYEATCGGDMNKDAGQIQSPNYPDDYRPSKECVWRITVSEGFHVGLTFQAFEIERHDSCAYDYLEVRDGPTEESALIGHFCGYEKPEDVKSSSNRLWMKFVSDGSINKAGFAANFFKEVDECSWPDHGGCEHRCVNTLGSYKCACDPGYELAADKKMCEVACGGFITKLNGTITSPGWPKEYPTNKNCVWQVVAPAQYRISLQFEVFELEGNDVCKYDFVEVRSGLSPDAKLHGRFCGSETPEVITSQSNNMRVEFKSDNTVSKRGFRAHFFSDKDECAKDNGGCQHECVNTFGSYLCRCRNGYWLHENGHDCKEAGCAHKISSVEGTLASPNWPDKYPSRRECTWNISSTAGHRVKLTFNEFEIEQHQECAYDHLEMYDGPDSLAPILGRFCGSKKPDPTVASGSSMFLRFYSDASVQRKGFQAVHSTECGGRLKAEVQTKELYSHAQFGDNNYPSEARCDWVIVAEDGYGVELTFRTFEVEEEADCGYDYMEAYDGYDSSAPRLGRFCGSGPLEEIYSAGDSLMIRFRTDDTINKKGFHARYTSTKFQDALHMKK

[5] = Reduction in PICP levels in human cardiac fibroblasts incubated for 24 to 48 hrs by ELISA; assay type: functional

SMILES	IC50 [1] [nM]	IC50 [2] [nM]	IC50 [3] [nM]	IC50 [4] [nM]	IC50 [5] [nM]
CCCCC[C@@H](C(=O)NCNC(=O)c1cccc(-c2ccc(C(=O)O)c(OCC)c2)n1)[C@@H](CC)N(O)C=O	< 126	< 251	< 398	< 631	< 20000
O=CN(O)C[C@@H](CC1CCCC1)C(=O)NCNC(=O)c1cccc(-c2cccc(OC(F)(F)F)c2)c1	< 126	< 251	< 398	< 631	< 20000
CCc1cccc(-c2cccc(C(=O)NCNC(=O)[C@H](CC3CCCC3)CN(O)C=O)c2)c1	< 126	< 251	< 398	< 631	< 20000
CCCCC[C@H](CN(O)C=O)C(=O)NCNC(=O)c1cccc(-c2ccc(F)cc2)c1	< 126	< 251	< 398	< 631	< 20000
CCCCC[C@@H](C(=O)NCNC(=O)c1cccc(-c2ccc(P(=O)(O)O)c(OCC)c2)c1)[C@@H](CC)N(O)C=O	< 126	< 251	< 398	< 631	< 20000
CCCCC[C@H](CN(O)C=O)C(=O)NCNC(=O)c1cccc(-c2cccc(OC)c2)n1	< 126	< 251	< 398	< 631	< 20000
CCCCC[C@@H](C(=O)NCNC(=O)c1cccc(-c2cc(O)cc(P(=O)(O)O)c2)n1)[C@@H](CC)N(O)C=O	< 126	< 251	< 398	< 631	< 20000
CCCCC[C@@H](C(=O)NCNC(=O)c1cccc(-c2ccc(C(=O)N[C@@H](CCC(=O)O)C(=O)O)cc2)n1)[C@@H](CC)N(O)C=O	< 126	< 251	< 398	< 631	< 20000
COc1cc(-c2cccc(C(=O)NCNC(=O)[C@H](CCc3ccccc3)CN(O)C=O)c2)c(OC)nn1	< 126	< 251	< 398	< 631	< 20000
CCCCC[C@@H](C(=O)NCNC(=O)c1cccc(-c2ccc(C3(C(=O)O)CC3)cc2)n1)[C@@H](CC)N(O)C=O	< 126	< 251	< 398	< 631	< 20000
CCCCC[C@H](CN(O)C=O)C(=O)NCNC(=O)c1cccc(-c2cccc(S(C)(=O)=O)c2)c1	< 126	< 251	< 398	< 631	< 20000
CCCCC[C@H](CN(O)C=O)C(=O)NCNC(=O)c1cccc(-c2cnc(C)o2)c1	< 126	< 251	< 398	< 631	< 20000
CCCCC[C@@H](C(=O)NCNC(=O)c1cccc(-c2ccc(C(=O)N[C@@H](CC(=O)O)C(=O)O)c(C)c2)n1)[C@@H](CC)N(O)C=O	< 126	< 251	< 398	< 631	< 20000
CCCCC[C@H](CN(O)C=O)C(=O)NCNC(=O)c1cccc(-c2cccc(OC)c2)c1F	< 126	< 251	< 398	< 631	< 20000
CCCCC[C@H](CN(O)C=O)C(=O)NCNC(=O)c1cccc(-c2ccc(F)cc2)n1	< 126	< 251	< 398	< 631	< 20000
CCCCC[C@H](CN(O)C=O)C(=O)NCNC(=O)c1cccc(-c2cccc(N(C)C)c2)c1	< 126	< 251	< 398	< 631	< 20000
COc1cccc(-c2cccc(C(=O)NCNC(=O)[C@H](CC3CCCC3)CN(O)C=O)c2)c1	< 126	< 251	< 398	< 631	< 20000
CCCCC[C@H](CN(O)C=O)C(=O)NCNC(=O)c1cccc(-c2cccc(C(N)=O)c2)c1	< 126	< 251	< 398	< 631	< 20000
CCCCC[C@@H](C(=O)NCNC(=O)c1cccc(-c2cc(OCC)cc(C(=O)N(CC(=O)O)CC(=O)O)c2)n1)[C@@H](CC)N(O)C=O	< 126	< 251	< 398	< 631	< 20000
CCCCC[C@@H](C(=O)NCNC(=O)c1cccc(-c2ccc(C(=O)N[C@@H](CC(=O)O)C(=O)O)cc2)n1)[C@@H](CC)N(O)C=O	< 126	< 251	< 398	< 631	< 20000
COc1cc(OC)cc(-c2cccc(C(=O)NCNC(=O)[C@H](CC3CCCC3)CN(O)C=O)c2)c1	< 126	< 251	< 398	< 631	< 20000
CCCCC[C@@H](C(=O)NCNC(=O)c1cccc(-c2ccc(C(=O)O)c(C(=O)O)c2)n1)[C@@H](CC)N(O)C=O	< 126	< 251	< 398	< 631	< 20000
CCCCC[C@@H](C(=O)NCNC(=O)c1cccc(-c2cc(OCC)cc(C(=O)O)c2)c1)[C@@H](CC)N(O)C=O	< 126	< 251	< 398	< 631	< 20000
CCCCC[C@H](CN(O)C=O)C(=O)NCNC(=O)c1cccc(-c2ccccc2)n1	< 126	< 251	< 398	< 631	< 20000
CCCCC[C@H](CN(O)C=O)C(=O)NCNC(=O)c1cccc(-c2cccc(O)c2)c1	< 126	< 251	< 398	< 631	< 20000
CCCCC[C@H](CN(O)C=O)C(=O)NCNC(=O)c1cccc(-c2ccccc2F)c1	< 126	< 251	< 398	< 631	< 20000
CCCCC[C@H](CN(O)C=O)C(=O)NCNC(=O)c1cccc(-c2cccc(NS(C)(=O)=O)c2)c1	< 126	< 251	< 398	< 631	< 20000
CCCCC[C@@H](C(=O)NCNC(=O)c1cccc(-c2cccc(S)c2)c1)[C@@H](CC)N(O)C=O	< 126	< 251	< 398	< 631	< 20000
